Data on nine compounds can be found in patent publication US20220304918A1, “Oral Compositions Comprising Hops And Sweeteners” (The Proctor & Gamble Company, priority 2021, published 2022).

Where a SMILES comes first, the peptide text is derived from it.

A short description of the experiment: Peak sweetness intensity perception relative to sucrose (potency-normalized comparison). Details: key: Quick: display a peak sweetness intensity faster than that experienced for sucrose; Slow: display a peak sweetness intensity slower than that experienced for sucrose. The conditions noted are these: sucrose as reference. The source says: The sweeteners listed in TABLE 1 have been categorized with respect to their peak sweetness intensity perception relative to sucrose as either quick or slow. Those sweeteners that have been categorized as “quick” display a peak sweetness intensity faster than that experienced for sucrose. Those sweeteners that have been categorized as “slow” display a peak sweetness intensity slower than that experienced for sucrose. Comparisons of peak sweetness intensity are made using potency-normalized comparisons to account for the different amounts of each ingredient to experience the same absolute peak sweetness.
As for `CC1=CC(=O)NS(=O)(=O)O1` [Acesulfame K], the “Onset Speed Relative to Sucrose” value is reported as “Quick”.
As to `OC[C@@H](O)[C@@H](O)[C@H](O)[C@@H](O)CO` [Sorbitol], the “Onset Speed Relative to Sucrose” value is reported as “Quick”.
The value for `COC(=O)[C@H](Cc1ccccc1)NC(=O)[C@H](CC(=O)O)NCCC(C)(C)C` [Neotame] was “Slow”; that for Steviosides was “Slow”.
The value for `COC(=O)[C@H](Cc1ccccc1)NC(=O)[C@@H](N)CC(=O)O` [Aspartame] (H-Asp-Phe-OMe) was “Slow”.
Regarding `OC[C@@H](O)[C@H](O)[C@@H](O)CO` [Xylitol], the “Onset Speed Relative to Sucrose” value was “Quick”.
The value for `OC[C@@H](O)[C@@H](O)CO` [Erythritol] was “Quick”.
The value for `OC[C@H]1O[C@H](O[C@]2(CCl)O[C@H](CCl)[C@@H](O)[C@@H]2O)[C@H](O)[C@@H](O)[C@H]1Cl` [Sucralose] was “Slow”; that for `O=C1NS(=O)(=O)c2ccccc21` [Saccharin] was “Quick”.
